{"source": "paper PMC10145360", "about": "“Antiplatelet Aggregation Properties of Cirsilineol: A Novel Inhibitor of Blood Coagulation Factor Xa” (Pharmaceuticals, 2023)", "key": {"[1]": {"tested_on": "platelet-poor plasma (PPP)", "assay": "In vitro aPTT clotting time in platelet-poor plasma", "set-up": "species or system human", "conditions": "PPP incubated 15 min", "experimental": "(§1) Figure 2 Effects of CSL on clotting time. (A) Platelet-poor plasma (PPP) was incubated with the indicated concentrations of CSL or rivaroxaban (Riva) for 15 min. (B) One hour after administering DMSO, CSL, or Riva, blood was collected from the mice, and PPP was obtained. Then, in vitro aPTT (A) or ex vivo aPTT was measured, as described in the Methods sections. Data are shown as mean values ± SD of five independent experiments. * p < 0.05 vs. D. D = 0.2% DMSO, used as the vehicle control.\n(§2) Ten fasting healthy volunteers (aged 24–28; six women and four men) who were free of allergies, cardiovascular problems, carbohydrate, or lipid metabolic abnormalities and had not taken any morning medication had their blood samples taken. None of our subjects used addictive drugs or antioxidant food supplements, and their diets were well balanced. The plasma from the blood samples was immediately spun down (1300× g for 15 min) to separate it from sodium citrate (10.9 mM) and pooled for the following investigations. Next, human blood samples were spun down at room temperature to rapidly separate the PRP. The PRP concentration was adjusted to 1 × 10^9 platelets/mL using a hemocytometer. After being rinsed once in HEPES buffer containing 1 mM CaCl2, the PRP pellet was maintained at room temperature for an additional 30 min. Then, 10 mL of the platelet samples were utilized to measure each clotting time point. The IRB of Kyungpook National University Hospital (Daegu, Republic of Korea) approved this study protocol (KNUH 2012-01-010).\nPlasma was taken by centrifuging blood (2000× g for 10 min) at room temperature following dimethyl sulfoxide (DMSO) or CSL administration for 1 h to assess PT and aPTT using a thrombotimer (Behnk Elektronik, Norderstedt, Germany). Micronized silica was utilized as an activator for the aPTT test. Briefly, 100 μL of platelet-poor plasma (PPP) and 100 μL of aPTT assay reagent were combined for 1 min at 37 °C, 100 µL of CaCl2 (20 mM) was added, and the clotting times were noted. […] Next, the clotting time was measured."}, "[2]": {"tested_on": "platelet-poor plasma (PPP)", "assay": "Ex vivo aPTT clotting time after intravenous injection", "format": "in vivo, mouse", "conditions": "mice, intravenous", "experimental": "(§3) First, the potential cytotoxicity of […] on HUVECs was assessed using the 3-(4,5-dimethylthiazol-2-yl)-2,5-diphenyltetrazolium bromide (MTT) assay. […] The activated partial thromboplastin time (aPTT) and prothrombin time (PT), two coagulation parameters altered by CSL in vitro, were assessed first. We used the direct FXa inhibitor rivaroxaban as a positive control for our experiments. […] In the aPTT experiments, rivaroxaban at 8.38 μM and CSL at 7.23 μM, respectively, doubled the clotting time. Each mouse group (n = 5) received intravenous injections of CSL for 4 consecutive days to validate the in vitro results in an ex vivo experiment. […] In the ex vivo aPTT assays, treatment with CSL at 0.25 mg/kg and rivaroxaban at 0.29 mg/kg, respectively, doubled the clotting time. The average blood volume was determined to be 2 mL based on an estimated circulating blood volume for mice of 72 mL/kg and an average weight of 27 g for each animal used in this investigation. As a result, the estimated concentration of CSL in the peripheral blood after each injection ([…]) was 2.5, 5, 10, or 20 μM, respectively.\nas §1\nMale C57BL/6 mice aged 7 weeks (mean weight: 27 g) were purchased from Orient Bio Co., in Sungnam, Republic of Korea, and were subjected to a 12-day acclimatization phase. […]\n(§4) Plasma was taken by centrifuging blood (2000× g for 10 min) at room temperature following dimethyl sulfoxide (DMSO) or CSL administration for 1 h to assess PT and aPTT using a thrombotimer (Behnk Elektronik, Norderstedt, Germany). […] Next, the clotting time was measured."}, "[3]": {"tested_on": "platelet-poor plasma (PPP)", "assay": "Prothrombin time (PT) after administration to mice", "format": "in vivo, mouse", "conditions": "administered to mice; data not shown", "experimental": "as §3, §4"}, "[4]": {"tested_on": "human platelet-rich plasma (PRP)", "assay": "In vitro agonist-induced platelet aggregation (aggregometer)", "format": "cell-based", "experimental": "Figure 3 Effects of CSL on agonist-induced platelet aggregation. Platelet-rich plasma (PRP) was preincubated for 5 min with different concentrations of CSL, Riva, or the vehicle. […] Data are shown as mean values ± SD of five independent experiments. * p < 0.05 vs. D. D = 0.2% DMSO, used as the vehicle control.\nas §2\nCSL dissolved in DMSO was incubated with human PRP for a specified time (1, 3, 5, or 10 min). […]"}, "[5]": {"tested_on": "FeCl3-induced carotid artery thrombosis", "assay": "FeCl3-induced carotid artery thrombosis model", "format": "in vivo, mouse", "conditions": "mice", "experimental": "A mouse model of FeCl3-induced thrombosis was created and used. Male C57BL/6 mice were starved for the entire night before receiving intravenous injections of the relevant drug in 0.2 mL of DMSO and were allowed to sleep. The carotid artery of the animal was exposed. The adventitial surface was covered with a cotton thread (200 μm in diameter) soaked in FeCl3 solution (0.25 M) for 5 min. The wound was flushed with saline solution once the thread had been removed. […] We measured the size and rate of thrombus formation, and we graded our results as follows: no thrombus or small thrombus (75–50 μm), medium thrombus (150–100 μm), massive thrombus (300–200 μm), and more than three thrombi. It was also noted how long it took for an extensive thrombus to obstruct the carotid artery following endothelial damage caused by FeCl3."}, "[6]": {"tested_on": "collagen and epinephrine-induced pulmonary thrombosis", "assay": "Acute pulmonary thrombosis induced by collagen and epinephrine", "format": "in vivo, mouse", "conditions": "for Mortality %: then collagen + epinephrine, mice; for Scored thrombus formation (Thrombi), lung: graded as thrombi per 25 mm^2 lung field", "experimental": "Mice were separated into several groups after being fasted overnight (10 animals each). CSL was dissolved in DMSO and given intravenously to each mouse. After 1 h, the animals received an injection of collagen and epinephrine mixture (500 μg/kg each) to induce acute thrombosis. Each mouse was closely observed for 15 min to see if it had recovered from the acute thrombosis challenge, had been paralyzed, or had passed away. H&E-stained lung tissue slices from five mice were randomly selected for the histologic investigation to determine the extent of pulmonary thrombus development. The number of arteries greater than 20 μm in diameter with any detectable thrombus was counted in each of the five view fields randomly selected from the left lobe in each section (one section per mouse). Twenty-five fields for each group were compared as a result. A total of 60–80 vessels in each segment were imaged using the system (Leica, Germany). The results were graded as the number of thrombi per 25 mm^2 lung field as previously described."}, "platelets": {"tested_on": "platelets", "conditions": "cited from earlier work"}}, "note": "Marks after values point to notes of the source that are not given here.", "data": [{"smiles": "O=C(NC[C@H]1CN(c2ccc(N3CCOCC3=O)cc2)C(=O)O1)c1ccc(Cl)s1", "note": "[Rivaroxaban, rivaroxaban, reference compound]", "values": [{"measurement": "concentration that doubled the clotting time (in vitro aPTT)", "setting": "[1]", "value": 8.38, "unit": "µM"}, {"measurement": "dose that doubled the clotting time (ex vivo aPTT)", "setting": "[2]", "value": 0.29, "unit": "mg/kg"}, {"measurement": "PT", "setting": "[3]", "value": "did not change"}, {"measurement": "platelet aggregation induced by ADP", "setting": "[4]; ADP 10 μM", "value": "did not affect"}, {"measurement": "platelet aggregation induced by U46619", "setting": "[4]; U46619 6 μM", "value": "did not affect"}, {"measurement": "platelet aggregation induced by collagen", "setting": "[4]; collagen 1 μg/mL", "value": "did not affect"}, {"measurement": "platelet aggregation induced by thrombin", "setting": "[4]; thrombin 3 U/mL", "value": "did not affect"}, {"measurement": "Scored thrombus formation", "setting": "[5]; 0.13 mg/kg intravenous", "value": "3.5 ± 0.1"}, {"measurement": "Time to Large Thrombus Formation", "setting": "[5]; 0.13 mg/kg intravenous", "value": "15.3 ± 1.1", "unit": "min"}, {"measurement": "Scored thrombus formation", "setting": "[5]; 0.26 mg/kg intravenous", "value": "3.1 ± 0.3"}, {"measurement": "Time to Large Thrombus Formation", "setting": "[5]; 0.26 mg/kg intravenous", "value": "21.8 ± 1.9", "unit": "min"}, {"measurement": "Scored thrombus formation", "setting": "[5]; 0.51 mg/kg intravenous", "value": "2.3 ± 0.1"}, {"measurement": "Time to Large Thrombus Formation", "setting": "[5]; 0.51 mg/kg intravenous", "value": "44.3 ± 3.1", "unit": "min"}, {"measurement": "Mortality %", "setting": "[6]; 0.13 mg/kg intravenous", "value": "85 ^# %"}, {"measurement": "Scored thrombus formation (Thrombi), lung", "setting": "[6]; 0.13 mg/kg intravenous", "value": "3.1 ± 0.1"}, {"measurement": "Mortality %", "setting": "[6]; 0.26 mg/kg intravenous", "value": "75 ^# %"}, {"measurement": "Scored thrombus formation (Thrombi), lung", "setting": "[6]; 0.26 mg/kg intravenous", "value": "2.6 ± 0.1"}, {"measurement": "Mortality %", "setting": "[6]; 0.51 mg/kg intravenous", "value": "55 ^# %"}, {"measurement": "Scored thrombus formation (Thrombi), lung", "setting": "[6]; 0.51 mg/kg intravenous", "value": "1.9 ± 0.2"}, {"measurement": "platelet aggregation", "setting": "platelets; blood taken from patients on rivaroxaban treatment", "value": "decreased platelet aggregation"}, {"measurement": "platelet aggregation brought on by collagen, ADP, thromboxane A2, or thrombin", "setting": "platelets; previous studies", "value": "not to affect"}]}]}
